Experiments:
HRAS wild-type protein = HRAS wild-type protein (Homo sapiens, UniProt P01112); test: Binding to HRAS by surface plasmon resonance (SPR), KD and KD ratio to KRAS; details: ratio of the KD value with respect to HRAS wild-type protein to the KD value with respect to KRAS
How it was run: (§1)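 Recombinant RAS proteins bearing a biotinylated Avi tag and loaded with GDP served as the captured ligand, recaptured fresh every cycle. Binding responses were referenced to an uncoated surface and a buffer-only blank cycle. Dissociation constants were obtained by 1:1 model fitting at 30°C.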

[1] = biological target: GDP-bound NRAS wild-type protein (Homo sapiens, UniProt P01111); test: Binding to NRAS by surface plasmon resonance (SPR), KD and KD ratio to KRAS; details: ratio of the KD value with respect to GDP-bound NRAS wild-type protein to the KD value with respect to KRAS
Sequence of GDP-bound NRAS wild-type protein (P01111 whole entry): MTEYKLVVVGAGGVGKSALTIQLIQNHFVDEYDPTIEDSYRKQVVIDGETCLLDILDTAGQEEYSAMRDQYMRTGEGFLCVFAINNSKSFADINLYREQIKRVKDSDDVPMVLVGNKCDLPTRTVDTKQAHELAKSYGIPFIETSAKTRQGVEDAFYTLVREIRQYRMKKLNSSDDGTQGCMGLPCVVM
How it was run: as §1

[2] = system: human lung cancer strain NCI-H441; assay type: cell-based
How it was run: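 Signal came from […] measured per well once the reagent was added. Beforehand, cells were cultured at 37°C and 5% carbon dioxide on a compound series serially diluted in dimethyl sulfoxide.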

Sequence of HRAS wild-type protein (P01112 whole entry): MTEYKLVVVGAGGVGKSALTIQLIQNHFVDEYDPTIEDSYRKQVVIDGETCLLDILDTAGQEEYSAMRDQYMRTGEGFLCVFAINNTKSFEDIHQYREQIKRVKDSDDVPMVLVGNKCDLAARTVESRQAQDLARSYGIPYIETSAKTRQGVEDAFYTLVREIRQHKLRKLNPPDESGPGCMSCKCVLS

| Compound | IC50 [2] [nM] | HRAS /KRAS (HRAS wild-type protein) | NRAS /KRAS [1] |
| --- | --- | --- | --- |
| CC[C@H](C)[C@@H]1NC(=O)[C@H](CC(C)C)N(C)C(=O)C[C@@H](C(=O)N2CCOCC2)N(C)C(=O)[C@H](C2CCCC2)N(C)C(=O)C2(CCCC2)NC(=O)[C@@H]2CCCN2C(=O)[C@H](CCc2ccc(C(F)(F)F)c(Cl)c2)NC(=O)CN(C)C(=O)[C@H](Cc2ccc(OC)cc2)N2CCCC[C@@H](C2=O)N(C)C(=O)CN(C)C1=O [PP0534] | 16.7 | B (a compound having 3 or more and less than 10 is denoted as B) | B (a compound having 3 or more and less than 10 is denoted as B) |
| CC[C@H](C)[C@@H]1NC(=O)[C@H](CC(C)C)N(C)C(=O)C[C@@H](C(=O)N2CCOCC2)N(C)C(=O)[C@H](C2CCCC2)N(C)C(=O)C2(CCCC2)NC(=O)[C@@H]2CCCN2C(=O)[C@H](CCc2ccc(C(F)(F)F)c(Cl)c2)NC(=O)CN(C)C(=O)[C@H](Cc2ccc(OC)cc2)N2CC=CC[C@@H](C2=O)N(C)C(=O)CN(C)C1=O [PP0535] | 55.4 | B (a compound having 3 or more and less than 10 is denoted as B) | C (A compound having a KD ratio of 0.1 or more and less than 3 is denoted as C) |
| CC[C@H](C)[C@@H]1NC(=O)[C@H](CC(C)C)N(C)C(=O)C[C@@H](C(=O)N2CCOCC2)N(C)C(=O)[C@H](C2CCCC2)N(C)C(=O)C2(CCCC2)NC(=O)[C@@H]2CCCN2C(=O)[C@H](CCc2ccc(C(F)(F)F)c(Cl)c2)NC(=O)CN(C)C(=O)[C@H](Cc2ccc(OC(F)(F)F)cc2)N2CCCC[C@@H](C2=O)N(C)C(=O)CN(C)C1=O [PP0536] | 21.8 | B (a compound having 3 or more and less than 10 is denoted as B) | B (a compound having 3 or more and less than 10 is denoted as B) |
| CC[C@H](C)[C@@H]1NC(=O)[C@H](CC(C)C)N(C)C(=O)C[C@@H](C(=O)N2CCOCC2)N(C)C(=O)[C@H](C2CCCC2)N(C)C(=O)C2(CCCC2)NC(=O)[C@@H]2CCCN2C(=O)[C@H](CCc2ccc(C(F)(F)F)c(Cl)c2)NC(=O)CN(C)C(=O)[C@H](Cc2ccc(OC(F)(F)F)cc2)N2CC=CC[C@@H](C2=O)N(C)C(=O)CN(C)C1=O [PP0537] | 197 | C (A compound having a KD ratio of 0.1 or more and less than 3 is denoted as C) | C (A compound having a KD ratio of 0.1 or more and less than 3 is denoted as C) |
| CC[C@H](C)[C@@H]1NC(=O)[C@H](CC(C)C)N(C)C(=O)C[C@@H](C(=O)N2CCOCC2)N(C)C(=O)[C@H](C2CCCC2)N(CC)C(=O)C2(CCCC2)NC(=O)[C@@H]2CCCN2C(=O)[C@H](CCc2cc(F)c(C(F)(F)F)c(F)c2)NC(=O)CN(C)C(=O)[C@H](Cc2ccc(C(F)(F)F)cc2)N2CCCC[C@@H](C2=O)N(C)C(=O)CN(C)C1=O [PP0538] | 78 | B (a compound having 3 or more and less than 10 is denoted as B) | B (a compound having 3 or more and less than 10 is denoted as B) |
| CC[C@H](C)[C@@H]1NC(=O)[C@H](CC(C)C)N(C)C(=O)C[C@@H](C(=O)N2CCOCC2)N(C)C(=O)[C@H](C2CCCC2)NC(=O)C2(CCCC2)NC(=O)[C@@H]2CCCN2C(=O)[C@H](CCc2cc(F)c(C(F)(F)F)c(F)c2)NC(=O)CN(C)C(=O)[C@H](Cc2ccc(C(F)(F)F)cc2)N2CCCC[C@@H](C2=O)N(C)C(=O)CN(C)C1=O [PP0540] | 766 | B (a compound having 3 or more and less than 10 is denoted as B) | B (a compound having 3 or more and less than 10 is denoted as B) |
| CC[C@H](C)[C@@H]1NC(=O)[C@H](CC(C)C)N(C)C(=O)C[C@@H](C(=O)N2CCOCC2)N(C)C(=O)[C@H](C2CCCC2)N(C)C(=O)C2(CCCC2)NC(=O)[C@@H]2CCCN2C(=O)[C@H](CCc2cc(F)c(C(F)(F)F)c(F)c2)NC(=O)CN(C)C(=O)[C@H](Cc2ccc(C(F)(F)F)cc2)N2CCCC[C@@H](C2=O)N(C)C(=O)[C@H](C)NC1=O [PP0543] | 41.5 | B (a compound having 3 or more and less than 10 is denoted as B) | B (a compound having 3 or more and less than 10 is denoted as B) |
| CC[C@H](C)[C@@H]1NC(=O)[C@H](CC(C)C)N(C)C(=O)C[C@@H](C(=O)N2CCOCC2)N(C)C(=O)[C@H](C2CCCC2)N(C)C(=O)C2(CCCC2)NC(=O)[C@@H]2CCCN2C(=O)[C@H](CCc2cc(F)c(C(F)(F)F)c(F)c2)NC(=O)CN(C)C(=O)[C@H](Cc2ccc(C(F)(F)F)cc2)N2CCCC[C@@H](C2=O)N(C)C(=O)[C@H](C)N(C)C1=O [PP0544] | 647 | B (a compound having 3 or more and less than 10 is denoted as B) | B (a compound having 3 or more and less than 10 is denoted as B) |
| CC[C@H](C)[C@@H]1NC(=O)[C@H](CC(C)C)N(C)C(=O)C[C@@H](C(=O)N2CCOCC2)N(C)C(=O)[C@H](C2CCCC2)N(C)C(=O)C2(CCCC2)NC(=O)[C@@H]2CCCN2C(=O)[C@H](CCc2cc(F)c(C(F)(F)F)c(F)c2)NC(=O)CN(C)C(=O)[C@H](Cc2ccc(C(F)(F)F)cc2)N2CCCC[C@@H](C2=O)N(C)C(=O)[C@@H]2CCCN2C1=O [PP0547] | 21.5 | B (a compound having 3 or more and less than 10 is denoted as B) | B (a compound having 3 or more and less than 10 is denoted as B) |
| CC[C@H](C)[C@@H]1NC(=O)[C@H](CC(C)C)N(C)C(=O)C[C@@H](C(=O)N2CCOCC2)N(C)C(=O)[C@H](C2CCCC2)N(C)C(=O)C2(CCCC2)NC(=O)[C@@H]2CCCN2C(=O)[C@H](CCc2cc(F)c(C(F)(F)F)c(F)c2)NC(=O)CN(C)C(=O)[C@H](Cc2ccc(C(F)(F)F)cc2)N2CCCC[C@@H](C2=O)N(C)C(=O)[C@@H]2CCCCN2C1=O [PP0548] | 501 | B (a compound having 3 or more and less than 10 is denoted as B) | C (A compound having a KD ratio of 0.1 or more and less than 3 is denoted as C) |

Compounds with a lower IC50 [2], results first:

| IC50 [2] [nM] | Compound | HRAS /KRAS (HRAS wild-type protein) | NRAS /KRAS [1] |
| --- | --- | --- | --- |
| 8.9 | CC[C@H](C)[C@@H]1NC(=O)[C@H](CC(C)C)N(C)C(=O)C[C@@H](C(=O)N2CCOCC2)N(C)C(=O)[C@H](C2CCCC2)N(C)C(=O)C2(CCCC2)NC(=O)[C@@H]2CCCN2C(=O)[C@H](CCc2ccc(C(F)(F)F)c(Cl)c2)NC(=O)CN(C)C(=O)[C@H](Cc2ccc(Cl)cc2)N2CC=CC[C@@H](C2=O)N(C)C(=O)CN(C)C1=O [PP0533] | C (A compound having a KD ratio of 0.1 or more and less than 3 is denoted as C) | C (A compound having a KD ratio of 0.1 or more and less than 3 is denoted as C) |
| 6.3 | CC[C@H](C)[C@@H]1NC(=O)[C@H](CC(C)C)N(C)C(=O)C[C@@H](C(=O)N2CCOCC2)N(CC)C(=O)[C@H](C2CCCC2)N(C)C(=O)C2(CCCC2)NC(=O)[C@@H]2CCCN2C(=O)[C@H](CCc2cc(F)c(C(F)(F)F)c(F)c2)NC(=O)CN(C)C(=O)[C@H](Cc2ccc(C(F)(F)F)cc2)N2CCCC[C@@H](C2=O)N(C)C(=O)CN(C)C1=O [PP0539] | B (a compound having 3 or more and less than 10 is denoted as B) | B (a compound having 3 or more and less than 10 is denoted as B) |
| 3.4 | CC[C@H](C)[C@@H]1NC(=O)[C@H](CC(C)C)N(C)C(=O)C[C@@H](C(=O)N2CCOCC2)N(C)C(=O)[C@H](C2CCCC2)N(C)C(=O)C2(CCCC2)NC(=O)[C@@H]2CCCN2C(=O)[C@H](CCc2cc(F)c(C(F)(F)F)c(F)c2)NC(=O)CN(C)C(=O)[C@H](Cc2ccc(C(F)(F)F)cc2)N2CCCC[C@@H](C2=O)N(C)C(=O)CNC1=O [PP0542] | B (a compound having 3 or more and less than 10 is denoted as B) | B (a compound having 3 or more and less than 10 is denoted as B) |
| 14 | CC[C@H](C)[C@@H]1NC(=O)[C@H](CC(C)C)N(C)C(=O)C[C@@H](C(=O)N2CCOCC2)N(C)C(=O)[C@H](C2CCCC2)N(C)C(=O)C2(CCCC2)NC(=O)[C@@H]2CCCN2C(=O)[C@H](CCc2cc(F)c(C(F)(F)F)c(F)c2)NC(=O)CN(C)C(=O)[C@H](Cc2ccc(C(F)(F)F)cc2)N2CCCC[C@@H](C2=O)N(C)C(=O)CN(CC)C1=O [PP0545] | B (a compound having 3 or more and less than 10 is denoted as B) | B (a compound having 3 or more and less than 10 is denoted as B) |
| 13 | CC[C@H](C)[C@@H]1NC(=O)[C@H](C)N(C)C(=O)C[C@@H](C(=O)N2CCOCC2)N(C)C(=O)[C@H](C2CCCC2)N(C)C(=O)C2(CCCC2)NC(=O)[C@@H]2CCCN2C(=O)[C@H](CCc2cc(F)c(C(F)(F)F)c(F)c2)NC(=O)CN(C)C(=O)[C@H](Cc2ccc(C(F)(F)F)cc2)N2CCCC[C@@H](C2=O)N(C)C(=O)CN(C)C1=O [PP0549] | B (a compound having 3 or more and less than 10 is denoted as B) | C (A compound having a KD ratio of 0.1 or more and less than 3 is denoted as C) |
| 2.8 | CC[C@H](C)[C@@H]1NC(=O)[C@H](CC(C)C)N(C)C(=O)C[C@@H](C(=O)N2CCOCC2)N(C)C(=O)[C@H](C2CCCC2)N(C)C(=O)C2(CCCC2)NC(=O)[C@@H]2CCCN2C(=O)[C@H](CCc2cc(F)c(C(F)(F)F)c(F)c2)NC(=O)CN(C)C(=O)[C@H](Cc2ccc(C(F)(F)F)cc2)N2CCCC[C@@H](C2=O)N(C)C(=O)CN(C)C1=O [PP0552] | B (a compound having 3 or more and less than 10 is denoted as B) | B (a compound having 3 or more and less than 10 is denoted as B) |
| 1.6 | CCO[C@@H]1C[C@H]2C(=O)NC3(CCCC3)C(=O)N(C)[C@@H](C3CCCC3)C(=O)N(C)[C@H](C(=O)N3CCOCC3)CC(=O)N(C)[C@@H](CC(C)C)C(=O)N[C@@H]([C@@H](C)CC)C(=O)N(C)CC(=O)N(C)[C@H]3CCCCN(C3=O)[C@@H](Cc3ccc(C(F)(F)F)cc3)C(=O)N(C)CC(=O)N[C@@H](CCc3cc(F)c(C(F)(F)F)c(F)c3)C(=O)N2C1 [PP0554] | B (a compound having 3 or more and less than 10 is denoted as B) | B (a compound having 3 or more and less than 10 is denoted as B) |

Reference: patent EP4603105A1, “PHARMACEUTICAL COMPOSITION CONTAINING CYCLIC COMPOUND HAVING SELECTIVE KRAS INHIBITORY EFFECT AGAINST HRAS AND NRAS” (CHUGAI SEIYAKU KABUSHIKI KAISHA, priority 2022, dated 2024)
